Measurements from paper PMC9677951 (Journal of medicinal chemistry, 2020).
Values joined by “and” are separate entries in the source; they are usually repeats but may differ in a detail not shown here. Identical values can stand only once. “Also recorded” adds a separate entry of the source. Like-named read-outs stand apart in the source and are kept apart here.

Tests used:
WT HIV-1 (IIIB) [1] = settings: read-out: EC50 WT; previously reported; ref [9]-[13]; cited from earlier work
[2] = system: HIV-1 strain RES056 (K103N+Y181C); settings: read-out: EC50 RES056, previously reported, ref [9]-[13], cited from earlier work
WT HIV-1 (IIIB) [3] = settings: read-out: EC50 IIIB, MT-4 cells, MTT method
[4] = system: HIV-1 strain RES056 (K103N+Y181C); settings: read-out: EC50 RES056, MT-4 cells, MTT method
HIV-1 Y181C = assay: Anti-HIV-1 activity against Y181C mutant in MT-4 cells, MTT method; type: cell-based; settings: Human immunodeficiency virus 1, MT4, read-out: EC50 Y181C
HIV-1 Y188L = assay: Anti-HIV-1 activity against Y188L mutant in MT-4 cells, MTT method; type: cell-based; settings: Human immunodeficiency virus 1, MT4, read-out: EC50 Y188L
HIV-1 E138K [5] = assay: Anti-HIV-1 activity against E138K mutant in MT-4 cells, MTT method; type: cell-based; settings: Human immunodeficiency virus 1, MT4, read-out: EC50 E138K
HIV-1 F227L+V106A [6] = assay: Anti-HIV-1 activity against F227L+V106A mutant in MT-4 cells, MTT method; type: cell-based; settings: Human immunodeficiency virus 1, MT4, read-out: EC50 F227L+V106A
HIV-1 K103N = settings: read-out: EC50 K103N; previously reported; ref [9]-[13]; cited from earlier work
HIV-1 E138K [7] = settings: read-out: EC50 E138K; previously reported; ref [9]-[13]; cited from earlier work
HIV-1 F227L+V106A [8] = settings: read-out: EC50 F227L+V106A; previously reported; ref [9]-[13]; cited from earlier work
WT HIV-1 (IIIB) [9] = assay: microbe, parasite or virus in culture; settings: Human immunodeficiency virus 1, IIIB, MT4, read-out: EC50 IIIB
Kunming mice = assay: Acute toxicity study in Kunming mice; type: in vivo; settings: single oral dose 2000 mg/kg
[10] = system: WT virus and NNRTI-resistant HIV-1 strains; assay: Broad-spectrum anti-HIV-1 activity against WT and NNRTI-resistant strains; type: cell-based; settings: Human immunodeficiency virus 1, read-out: EC50 range, broad-spectrum activity

Row | SMILES | EC50 (WT HIV-1 (IIIB) [1]) [nM] | EC50 [2] [nM] | EC50 [4] [nM] | EC50 (HIV-1 K103N) [nM] | EC50 (HIV-1 E138K [7]) [nM] | EC50 (HIV-1 F227L+V106A [8]) [nM] | other results
1 | Cc1cc(/C=C/C#N)cc(C)c1Nc1ccnc(Nc2ccc(C#N)cc2)n1 [RPV, rilpivirine] | 1 ± 0.3 | 11 ± 1.9 | – | – | – | – | –
2 | O=C1Nc2ccc(Cl)cc2[C@@](C#CC2CC2)(C(F)(F)F)O1 [EFV, efavirenz] | – | – | 260 ± 47.6 | – | – | – | EC50 (WT HIV-1 (IIIB) [3]): 2.49 ± 0.547 nM
3 | Cc1cc(C#N)cc(C)c1Oc1nc(Nc2ccc(C#N)cc2)nc(N)c1Br [ETR, Etravirine] | 4.1 ± 0.1 | 17 ± 1.8 | 32.2 ± 12.2 | 2.4 ± 0.6 | 14 ± 2.2 | 29 ± 7.7 | EC50 (HIV-1 Y181C): 14.5 ± 8.22 nM; EC50 (HIV-1 Y188L): 20.4 ± 8.64 nM; EC50 (HIV-1 E138K [5]): 9.76 ± 6.9 nM; EC50 (HIV-1 F227L+V106A [6]): 19.7 ± 7.3 nM; EC50 (WT HIV-1 (IIIB) [9]): 2.55 ± 0.37 nM
4 | Cc1cc(/C=C/C#N)cc(C)c1Oc1nc(Nc2ccc(C#N)c(F)c2)nc2ccsc12 [Compound 24b, (E)-4-((4-(4-(2-cyanovinyl)-2,6-dimethylphenoxy)thieno[3,2-d]pyrimidin-2-yl)amino)-2-fluorobenzonitrile] | – | – | – | – | – | – | Acute toxicity: behaviors and body weight vs control group (Kunming mice): no abnormal behaviors or significant changes of body weight; Acute toxicity: mortality or poisoning symptoms (Kunming mice; following 7 days, 2000 mg/kg): no mortality or poisoning symptoms; also recorded: no acute toxicity; EC50 [10]: 3.6 to 21.5 nM
5 | Cc1cc(C#N)cc(C)c1Oc1nc(NC2CCN(Cc3ccc(S(N)(=O)=O)cc3)CC2)nc2ccsc12 [Compound K-5a2] | 1.4 ± 0.4 | – | – | 2.9 | 2.9 | 4.2 ± 1.2 | EC50 ([2]; listed as 3): 30.6 nM and 31 nM
